System: psoriasis
Test: Topical dosage form of CAPE in petroleum jelly for treating psoriasis
Format: in vivo
Conditions: 10.0 weight percent in petroleum jelly
Source text: In some embodiments, the topical dosage forms may contain 0.5 weight percent to 20.0 weight percent of the compounds described herein. […] The weight percent of the compounds described herein within the topical dosage forms may range from 1.0 weight percent to 15.0 weight percent or 5.0 weight percent to 11.0 weight percent. Treatment regimes with the topical dosage forms may occur daily, twice daily, three times daily or four times daily for durations, for example, of three weeks or four weeks or until symptoms are no longer present.

O=C(/C=C/c1ccc(O)c(O)c1)OCCc1ccccc1 [CAPE, caffeic acid phenethyl ester]
effectiveness for treating psoriasis: effective
